Measurements as given in patent publication US8535741B2, “Method and composition for administering bioactive compounds derived from Morinda citrifolia” (priority 2006, dated 2013).
One block for each compound: values may come before it.

Experiments:
[1] = tested on: human epidermoid carcinoma cell line-A431; test: cells; type: cell-based; conditions: for Percent Grown: A431, 72-hour exposure
Method: In this example, assays were performed to detect changes in cell proliferation based on the ability of viable cells to cause alamarBlue to change from non-fluorescent blue to a reduced, fluorescent red form. With the results obtained from the alamarBlue reaction, cell proliferation can be quantified and metabolic activity of viable cells can be examined. Test compounds including Morinda citrifolia leaf extract, leaf juice, and roast leaf were tested for their effects on the proliferation of human epidermoid carcinoma cell line-A431 at assay concentrations from 0.01 to 100 μg/ml or 0.0001% to 1% through serial 10-fold dilutions.
Morinda citrifolia leaf extract, leaf juice, and roast leaf were provided by Tahitian Noni International, Inc. for in vitro anti-tumor studies. The Morinda citrifolia compounds were dissolved in sterile distilled water and then diluted with sterile distilled water to obtain initial working solutions of 10000, 1000, 100, 10, and 1 μg/ml for the leaf extract and roast leaf, as well as 100, 10, 1, 0.1 and 0.01% for the leaf juice. In testing, 100-fold dilution was made in culture media to get final assay concentrations of 100, 10, 1, 0.1 and 0.01 μg/ml, and 1, 0.1, 0.01, 0.001 and 0.0001%, respectively.
The tumor cell line, A431 (human epidermoid carcinoma), obtained from American Type Culture Collection (ATCC CRL-1555), was incubated in an air atmosphere of 5% CO2 at 37° C. The culture medium was used with Dulbecco's Modified Eagle's medium, 90%; Fetal Bovine Serum, 10% and supplemented with 1% Antibiotic-Antimycotic.
The anti-proliferation for the test substances was evaluated. Aliquots of 100 µl of cell suspension (about 3×10^3/well) were placed in 96-well microtiter plates in an atmosphere of 5% CO2 at 37° C. […] Two test compounds, leaf extract and roast leaf, were evaluated at concentrations of […]. The other compound, leaf juice, was evaluated at concentrations of 1, 0.1, 0.01, 0.001 and 0.0001%. At the end of incubation, 20 µl of 90% alamarBlue reagent was added to each well for another 6-hour incubation before detection of cell viability by fluorescent intensity. Fluorescent intensity was measured using a Spectrafluor Plus plate reader with excitation at 530 nm and demission at 590 nm.
IC50, TGI, and LC50 values were then determined. […] TGI (Total Growth Inhibition) is the test compound concentration where the number or mass of treated cells at the end of the experiment was equal to that at time0. […] The measured results were calculated by the following formula: PG(%)=100×(Mean Ftest−Mean Ftime0)^/(Mean Fctr l−Mean Ftime0)
If (Mean Ftest−Mean Ftime0)^<0, then PG(%)−100×(Mean Ftest−Mean Ftime0)/(Mean Ftime0−Mean Fblank)
Where: PG=percent growth; Mean Ftime0=The average of 2 measured fluorescent intensities of reduced alamarBlue at the time just before exposure of cells to the test substance; Mean Ftest=The average of 2 measured fluorescent intensities of alamarBlue after 72-hour exposure of cells to the test substance; Mean Fctrl=The average of 2 measured fluorescent intensities of alamarBlue after 72-hour incubation without the test substance; and Mean Fblank=The average of 2 measured fluorescent intensities of alamarBlue in medium without cells after 72-hour incubation.
A decrease of 50% or more (≧50%) in fluorescent intensity relative to the vehicle-treated control indicated significant cell growth inhibition, cytostatic or cytotoxic activity, and a semi-quantitative IC50, TGI, and LC50 were then determined by nonlinear regression using GraphPad Prism (GraphPad Software, USA).

Adenosine A2A = Adenosine A2A (Homo sapiens, UniProt P29274); test: bio-assay on Adenosine A2A; conditions: isolated from squeezed juice of fresh Morinda citrifolia leaf
Chain of Adenosine A2A (P29274 whole entry): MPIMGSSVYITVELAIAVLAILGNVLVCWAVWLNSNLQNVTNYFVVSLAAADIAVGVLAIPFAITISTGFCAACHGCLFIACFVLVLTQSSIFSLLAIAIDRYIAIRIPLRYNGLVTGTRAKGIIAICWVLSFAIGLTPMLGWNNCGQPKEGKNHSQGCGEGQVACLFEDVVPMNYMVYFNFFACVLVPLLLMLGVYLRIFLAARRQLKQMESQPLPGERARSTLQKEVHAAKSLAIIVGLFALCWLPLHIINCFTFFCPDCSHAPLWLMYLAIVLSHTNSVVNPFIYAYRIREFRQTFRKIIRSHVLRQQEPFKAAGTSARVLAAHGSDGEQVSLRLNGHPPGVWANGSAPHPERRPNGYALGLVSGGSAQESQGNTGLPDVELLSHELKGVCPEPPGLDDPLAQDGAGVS
Text: Their structures have been determined by NMR techniques and mass spectrometry and they have been identified as Pyro-phorbide a, Pheoporbide a, Purpin 7, and Pheophorbide Phytolester. The isolation and characterization of the above referenced bioactive compounds provides a significant explanation for the anti-inflammatory and analgesic properties of extracts derived from the Morinda citrifolia plant, particularly from the leaf of the plant.

bioactivity in bio-assay on Adenosine A2A (Adenosine A2A): significant bioactivity
Compound: Pheophorbide Phytolester

bioactivity in bio-assay on Adenosine A2A (Adenosine A2A): significant bioactivity
Compound: Purpin 7

bioactivity in bio-assay on Adenosine A2A (Adenosine A2A): significant bioactivity
Compound: Pyro-phorbide a

The next lines start with the compound.

Compound: CO[C@@]12[C@H](COC(N)=O)C3=C(C(=O)C(C)=C(N)C3=O)N1C[C@@H]1N[C@@H]12 [Mitomycin]
Percent Grown ([1]; Concentration 0.001 (ttM)): 101 +/− 5%
Percent Grown ([1]; Concentration 0.01 (ttM)): 82 +/− 3%
Percent Grown ([1]; Concentration 0.1 (ttM)): 7 +/− 3%
Percent Grown ([1]; Concentration 1 (ttM)): 35 +/− 8%
Percent Grown ([1]; Concentration 10 (ttM)): 97 +/− 0%
IC50 ([1]; Homo sapiens, A-431, Tumor, Skin (A431), semi-quantitative, nonlinear regression, read-out: IC50 (50% Inhibition Concentration)): 35 nM
TGI (Total Growth Inhibition) ([1]; Tumor, Skin (A431), semi-quantitative, nonlinear regression): 190 nM
inhibitory activity on tumor cell growth ([1]; at <10 p.M, A431): Significant inhibitory activity

Compound: Pheoporbide a
bioactivity in bio-assay on Adenosine A2A (Adenosine A2A): significant bioactivity
